Holding throughout (assay): Transport of fluorescent substrates in BacMam-transduced HeLa cells (flow cytometry)
In one data set the target is Y307C mutant Pgp (Homo sapiens, UniProt P08183, C1074A/C1125A/C1227A/C137A/C431A/C717A/C956A/Y307C). The conditions noted are these: compared to cysless WT Pgp (taken as 100%), calcein-AM 0.5 µM 10 min, Rh123 […], other substrates 0.5 µM 45 min. Here is the method:
(§1) The BacMam-Pgp virus (encoding cysless WT and the mutant Pgps) was added to 2.5 million HeLa cells at a titer of 50-60 viral particles per cell in 3 ml of DMEM and incubated at 37°C [30]. After 1 hr DMEM was added to make a total of 20 ml in the flask and these infected cells were further incubated for 3-4 hrs. 10 mM butyric acid was then added and the cells continued to incubate at 37°C. After 24 hrs, the cells were trypsinized, washed, counted and analyzed by flow cytometry for cell surface expression and the function of the wildtype and mutant Pgps.
(§2) The transport function of cysless WT and mutant Pgps was determined using fluorescent compounds with flow cytometry as previously described. […] Cells were washed with cold PBS and resuspended in PBS containing 0.1% BSA before analysis.

Another data set deals with F728C/V982C mutant Pgp (Homo sapiens, UniProt P08183, C1074A/C1125A/C1227A/C137A/C431A/C717A/C956A/F728C/V982C). The conditions noted are these: compared to cysless WT Pgp (taken as 100%), calcein-AM 0.5 µM 10 min, Rh123 […], other substrates 0.5 µM 45 min. Here is the method:
as §1, §2

For a further data set, the target named is Y307C/V982C mutant Pgp (Homo sapiens, UniProt P08183, C1074A/C1125A/C1227A/C137A/C431A/C717A/C956A/V982C/Y307C). As to conditions: compared to cysless WT Pgp (taken as 100%), calcein-AM 0.5 µM 10 min, Rh123 […], other substrates 0.5 µM 45 min. Here is the method: as §1, §2
A further data set has as its target Q725C mutant Pgp (Homo sapiens, UniProt P08183, C1074A/C1125A/C1227A/C137A/C431A/C717A/C956A/Q725C). The conditions noted are these: compared to cysless WT Pgp (taken as 100%), calcein-AM 0.5 µM 10 min, Rh123 […], other substrates 0.5 µM 45 min. Here is the method: as §1, §2
For another data set, the target named is V982C mutant Pgp (Homo sapiens, UniProt P08183, C1074A/C1125A/C1227A/C137A/C431A/C717A/C956A/V982C). The conditions noted are these: compared to cysless WT Pgp (taken as 100%), calcein-AM 0.5 µM 10 min, Rh123 […], other substrates 0.5 µM 45 min. Here is the method: as §1, §2
The target of a further data set is F343C mutant Pgp (Homo sapiens, UniProt P08183, C1074A/C1125A/C1227A/C137A/C431A/C717A/C956A/F343C). As to conditions: compared to cysless WT Pgp (taken as 100%), calcein-AM 0.5 µM 10 min, Rh123 […], other substrates 0.5 µM 45 min. On the procedure: as §1, §2
Data set [1] concerns the target Y307C/Q725C/V982C mutant Pgp (Homo sapiens, UniProt P08183, C1074A/C1125A/C1227A/C137A/C431A/C717A/C956A/Q725C/V982C/Y307C). The conditions noted are these: Y307/Q725C/V982C in HeLa cells; compared to cysless WT Pgp (taken as 100%); calcein-AM 0.5 µM 10 min, Rh123 […], other substrates 0.5 µM 45 min. On the procedure:
as §1, §2

For a further data set, the target named is Q725C/V982C mutant Pgp (Homo sapiens, UniProt P08183, C1074A/C1125A/C1227A/C137A/C431A/C717A/C956A/Q725C/V982C). As to conditions: compared to cysless WT Pgp (taken as 100%), calcein-AM 0.5 µM 10 min, Rh123 […], other substrates 0.5 µM 45 min. Here is the method: as §1, §2
The target in another data set is F728C mutant Pgp (Homo sapiens, UniProt P08183, C1074A/C1125A/C1227A/C137A/C431A/C717A/C956A/F728C). As to conditions: compared to cysless WT Pgp (taken as 100%), calcein-AM 0.5 µM 10 min, Rh123 […], other substrates 0.5 µM 45 min. On the procedure: as §1, §2
The target in a further data set is F343C/V982C mutant Pgp (Homo sapiens, UniProt P08183, C1074A/C1125A/C1227A/C137A/C431A/C717A/C956A/F343C/V982C). As to conditions: compared to cysless WT Pgp (taken as 100%), calcein-AM 0.5 µM 10 min, Rh123 […], other substrates 0.5 µM 45 min. Here is the method:
as §1, §2

The next data set deals with F978C mutant Pgp (Homo sapiens, UniProt P08183, C1074A/C1125A/C1227A/C137A/C431A/C717A/C956A/F978C). As to conditions: compared to cysless WT Pgp (taken as 100%), calcein-AM 0.5 µM 10 min, Rh123 […], other substrates 0.5 µM 45 min. On the procedure:
as §1, §2

In the case of `CC(=O)OCOC(=O)CN(CC(=O)OCOC(C)=O)Cc1cc2c(cc1OC(C)=O)Oc1cc(OC(C)=O)c(CN(CC(=O)OCOC(C)=O)CC(=O)OCOC(C)=O)cc1C21OC(=O)c2ccccc21` [CalAM, calcein-AM], the Transport function is recorded as 90-100% on Y307C mutant Pgp; 55-65% at F728C/V982C mutant Pgp; 90-100% at Y307C/V982C mutant Pgp; 90-100% at Q725C mutant Pgp; 90-100% at V982C mutant Pgp; 90-100% at F343C mutant Pgp. For the same compound, the Transport function (in data set [1]; on Q725C/V982C mutant Pgp; on F728C mutant Pgp; on F343C/V982C mutant Pgp; on F978C mutant Pgp) was 90-100% in each case.
